Data from ChEMBL document CHEMBL4507302, “Data for DCP probe TP-020” (2021).

What was measured:
[1] = target: RAC-gamma serine/threonine-protein kinase (Homo sapiens) (UniProt Q9Y243); settings: Compound concentration 1000.0 nM
[2] = target: Mitogen-activated protein kinase kinase kinase 6 (Homo sapiens) (UniProt O95382); settings: Compound concentration 1000.0 nM
[3] = target: Cytoplasmic tyrosine-protein kinase BMX (Homo sapiens) (UniProt P51813); settings: Compound concentration 1000.0 nM
[4] = system: Serine/threonine-protein kinase B-raf (Homo sapiens), P15056 [V600E]; settings: Compound concentration 1000.0 nM
[5] = target: Serine/threonine-protein kinase BRSK1 (Homo sapiens) (UniProt Q8TDC3); settings: Compound concentration 1000.0 nM
[6] = target: Cyclin-dependent kinase-like 2 (Homo sapiens) (UniProt Q92772); settings: Compound concentration 1000.0 nM
[7] = target: Cyclin-dependent kinase-like 3 (Homo sapiens) (UniProt Q8IVW4); settings: Compound concentration 1000.0 nM
[8] = target: Serine/threonine-protein kinase Chk1 (Homo sapiens) (UniProt O14757); settings: Compound concentration 1000.0 nM
[9] = target: Casein kinase I isoform gamma-1 (Homo sapiens) (UniProt Q9HCP0); settings: Compound concentration 1000.0 nM
[10] = target: Death-associated protein kinase 2 (Homo sapiens) (UniProt Q9UIK4); settings: Compound concentration 1000.0 nM
[11] = system: Epidermal growth factor receptor (Homo sapiens), P00533 [UNDEFINED MUTATION]; settings: Compound concentration 1000.0 nM
[12] = system: eIF-2-alpha kinase GCN2 (Homo sapiens), Q9P2K8 [S808G]; settings: Compound concentration 1000.0 nM
[13] = target: Homeodomain-interacting protein kinase 1 (Homo sapiens) (UniProt Q86Z02); settings: Compound concentration 1000.0 nM
[14] = target: Serine/threonine-protein kinase ICK (Homo sapiens) (UniProt Q9UPZ9); settings: Compound concentration 1000.0 nM
[15] = target: Tyrosine-protein kinase JAK1 (Homo sapiens) (UniProt P23458); settings: Compound concentration 1000.0 nM
[16] = target: Serine/threonine-protein kinase LATS1 (Homo sapiens) (UniProt O95835); settings: Compound concentration 1000.0 nM
[17] = target: Serine/threonine-protein kinase MARK2 (Homo sapiens) (UniProt Q7KZI7); settings: Compound concentration 1000.0 nM
[18] = target: MAP/microtubule affinity-regulating kinase 4 (Homo sapiens) (UniProt Q96L34); settings: Compound concentration 1000.0 nM
[19] = target: Serine/threonine-protein kinase mTOR (Homo sapiens) (UniProt P42345); settings: Compound concentration 1000.0 nM
[20] = target: Serine/threonine-protein kinase Nek7 (Homo sapiens) (UniProt Q8TDX7); settings: Compound concentration 1000.0 nM
[21] = target: Mitogen-activated protein kinase 14 (Homo sapiens) (UniProt Q16539); settings: Compound concentration 1000.0 nM
[22] = target: Platelet-derived growth factor receptor alpha (Homo sapiens) (UniProt P16234); settings: Compound concentration 1000.0 nM
[23] = target: Serine/threonine-protein kinase PLK3 (Homo sapiens) (UniProt Q9H4B4); settings: Compound concentration 1000.0 nM
[24] = target: Protein kinase C iota type (Homo sapiens) (UniProt P41743); settings: Compound concentration 1000.0 nM
[25] = target: cGMP-dependent protein kinase 2 (Homo sapiens) (UniProt Q13237); settings: Compound concentration 1000.0 nM
[26] = target: Serine/threonine-protein kinase SIK3 (Homo sapiens) (UniProt Q9Y2K2); settings: Compound concentration 1000.0 nM
[27] = system: Proto-oncogene tyrosine-protein kinase receptor Ret (Homo sapiens), P07949 [V804L]; settings: Compound concentration 1000.0 nM
[28] = system: Proto-oncogene tyrosine-protein kinase receptor Ret (Homo sapiens), P07949 [V804M]; settings: Compound concentration 1000.0 nM
[29] = target: Ribosomal protein S6 kinase alpha-2 (Homo sapiens) (UniProt Q15349); settings: Compound concentration 1000.0 nM
[30] = target: Serine/threonine-protein kinase Sgk1 (Homo sapiens) (UniProt O00141); settings: Compound concentration 1000.0 nM
[31] = target: Serine/threonine-protein kinase SIK1 (Homo sapiens) (UniProt P57059); settings: Compound concentration 1000.0 nM
[32] = target: Serine/threonine-protein kinase SIK2 (Homo sapiens) (UniProt Q9H0K1); settings: Compound concentration 1000.0 nM
[33] = target: Tyrosine-protein kinase Srms (Homo sapiens) (UniProt Q9H3Y6); settings: Compound concentration 1000.0 nM
[34] = target: SRSF protein kinase 2 (Homo sapiens) (UniProt P78362); settings: Compound concentration 1000.0 nM
[35] = target: Serine/threonine-protein kinase 36 (Homo sapiens) (UniProt Q9NRP7); settings: Compound concentration 1000.0 nM
[36] = target: TGF-beta receptor type-1 (Homo sapiens) (UniProt P36897); settings: Compound concentration 1000.0 nM
[37] = target: Non-receptor tyrosine-protein kinase TYK2 (Homo sapiens) (UniProt P29597); settings: Compound concentration 1000.0 nM
[38] = target: Non-receptor tyrosine-protein kinase TYK2 (Homo sapiens) (UniProt P29597); settings: Compound concentration 1000.0 nM; remark: listed apart in the source
[39] = target: Tyrosine-protein kinase receptor TYRO3 (Homo sapiens) (UniProt Q06418); settings: Compound concentration 1000.0 nM
[40] = target: Serine/threonine-protein kinase WNK2 (Homo sapiens) (UniProt Q9Y3S1); settings: Compound concentration 1000.0 nM
[41] = target: Serine/threonine-protein kinase WNK3 (Homo sapiens) (UniProt Q9BYP7); settings: Compound concentration 1000.0 nM
[42] = target: Serine/threonine-protein kinase 25 (Homo sapiens) (UniProt O00506); settings: Compound concentration 1000.0 nM
[43] = target: 5-hydroxytryptamine receptor 1B (Homo sapiens) (UniProt P28222); settings: Compound concentration 10.0 uM
[44] = target: 5-hydroxytryptamine receptor 3A (Homo sapiens) (UniProt P46098); settings: Compound concentration 10.0 uM
[45] = target: Delta-type opioid receptor (Homo sapiens) (UniProt P41143); settings: Compound concentration 10.0 uM

Chain of Non-receptor tyrosine-protein kinase TYK2 (Homo sapiens) (P29597 whole entry): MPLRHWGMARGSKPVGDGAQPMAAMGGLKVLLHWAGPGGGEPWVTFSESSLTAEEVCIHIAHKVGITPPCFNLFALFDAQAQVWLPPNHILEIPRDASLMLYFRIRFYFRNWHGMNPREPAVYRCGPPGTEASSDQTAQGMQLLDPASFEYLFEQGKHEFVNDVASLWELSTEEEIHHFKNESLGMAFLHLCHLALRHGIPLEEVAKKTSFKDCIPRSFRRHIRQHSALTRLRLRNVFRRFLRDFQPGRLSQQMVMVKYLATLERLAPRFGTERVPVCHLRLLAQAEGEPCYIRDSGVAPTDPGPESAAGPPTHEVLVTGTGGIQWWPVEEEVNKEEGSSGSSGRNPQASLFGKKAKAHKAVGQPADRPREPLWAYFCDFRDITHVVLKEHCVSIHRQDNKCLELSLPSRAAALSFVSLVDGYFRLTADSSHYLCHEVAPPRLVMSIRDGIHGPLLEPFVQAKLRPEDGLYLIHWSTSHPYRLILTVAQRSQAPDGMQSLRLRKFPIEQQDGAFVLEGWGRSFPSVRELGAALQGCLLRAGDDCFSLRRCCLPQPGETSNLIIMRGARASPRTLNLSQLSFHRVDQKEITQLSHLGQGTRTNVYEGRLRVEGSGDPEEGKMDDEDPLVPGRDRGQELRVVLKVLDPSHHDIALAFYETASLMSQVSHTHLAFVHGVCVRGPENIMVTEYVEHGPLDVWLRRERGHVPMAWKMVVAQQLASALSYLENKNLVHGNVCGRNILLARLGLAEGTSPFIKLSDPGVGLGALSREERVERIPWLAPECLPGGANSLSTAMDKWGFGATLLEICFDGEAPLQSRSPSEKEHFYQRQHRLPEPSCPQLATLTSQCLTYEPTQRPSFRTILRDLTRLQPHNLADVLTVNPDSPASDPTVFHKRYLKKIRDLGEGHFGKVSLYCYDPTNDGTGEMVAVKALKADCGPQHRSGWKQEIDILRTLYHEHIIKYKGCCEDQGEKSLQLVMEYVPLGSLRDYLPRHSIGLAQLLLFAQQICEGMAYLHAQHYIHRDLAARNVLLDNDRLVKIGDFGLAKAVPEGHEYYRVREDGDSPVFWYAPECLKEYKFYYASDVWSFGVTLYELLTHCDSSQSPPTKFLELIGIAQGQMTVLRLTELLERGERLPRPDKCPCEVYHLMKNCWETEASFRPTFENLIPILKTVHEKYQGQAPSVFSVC
Chain of Mitogen-activated protein kinase kinase kinase 6 (Homo sapiens) (O95382 whole entry): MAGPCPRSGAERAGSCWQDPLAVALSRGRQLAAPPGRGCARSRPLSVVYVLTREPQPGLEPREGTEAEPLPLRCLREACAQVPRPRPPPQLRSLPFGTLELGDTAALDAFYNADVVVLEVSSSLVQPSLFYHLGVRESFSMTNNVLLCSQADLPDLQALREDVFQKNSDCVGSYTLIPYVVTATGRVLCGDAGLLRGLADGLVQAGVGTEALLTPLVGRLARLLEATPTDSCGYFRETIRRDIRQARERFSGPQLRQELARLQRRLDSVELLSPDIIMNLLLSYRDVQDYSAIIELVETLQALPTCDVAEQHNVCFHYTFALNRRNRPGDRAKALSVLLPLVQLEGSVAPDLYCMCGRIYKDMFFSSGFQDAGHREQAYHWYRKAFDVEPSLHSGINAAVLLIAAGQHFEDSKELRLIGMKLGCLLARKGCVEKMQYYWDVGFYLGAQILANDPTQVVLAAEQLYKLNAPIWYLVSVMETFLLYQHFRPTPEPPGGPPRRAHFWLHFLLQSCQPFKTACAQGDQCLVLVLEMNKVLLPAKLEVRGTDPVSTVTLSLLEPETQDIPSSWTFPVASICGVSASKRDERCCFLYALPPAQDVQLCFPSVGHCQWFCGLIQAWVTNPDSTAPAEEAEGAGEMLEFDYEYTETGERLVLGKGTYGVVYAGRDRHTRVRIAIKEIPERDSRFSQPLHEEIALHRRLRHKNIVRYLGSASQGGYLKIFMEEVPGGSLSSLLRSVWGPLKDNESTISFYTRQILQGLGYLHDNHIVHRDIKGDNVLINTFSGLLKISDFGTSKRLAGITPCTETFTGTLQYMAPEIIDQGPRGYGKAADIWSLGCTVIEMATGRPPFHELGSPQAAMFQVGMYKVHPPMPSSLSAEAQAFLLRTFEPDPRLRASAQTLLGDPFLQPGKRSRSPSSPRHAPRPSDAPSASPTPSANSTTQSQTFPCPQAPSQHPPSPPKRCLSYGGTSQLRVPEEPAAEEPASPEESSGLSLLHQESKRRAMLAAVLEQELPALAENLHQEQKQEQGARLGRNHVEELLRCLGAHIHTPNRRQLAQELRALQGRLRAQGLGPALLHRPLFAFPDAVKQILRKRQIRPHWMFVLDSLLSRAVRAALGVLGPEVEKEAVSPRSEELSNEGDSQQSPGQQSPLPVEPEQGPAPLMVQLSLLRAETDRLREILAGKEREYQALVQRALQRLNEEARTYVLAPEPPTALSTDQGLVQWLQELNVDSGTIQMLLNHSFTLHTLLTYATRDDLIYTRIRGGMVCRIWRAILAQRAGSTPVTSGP
Chain of Cytoplasmic tyrosine-protein kinase BMX (Homo sapiens) (P51813 whole entry): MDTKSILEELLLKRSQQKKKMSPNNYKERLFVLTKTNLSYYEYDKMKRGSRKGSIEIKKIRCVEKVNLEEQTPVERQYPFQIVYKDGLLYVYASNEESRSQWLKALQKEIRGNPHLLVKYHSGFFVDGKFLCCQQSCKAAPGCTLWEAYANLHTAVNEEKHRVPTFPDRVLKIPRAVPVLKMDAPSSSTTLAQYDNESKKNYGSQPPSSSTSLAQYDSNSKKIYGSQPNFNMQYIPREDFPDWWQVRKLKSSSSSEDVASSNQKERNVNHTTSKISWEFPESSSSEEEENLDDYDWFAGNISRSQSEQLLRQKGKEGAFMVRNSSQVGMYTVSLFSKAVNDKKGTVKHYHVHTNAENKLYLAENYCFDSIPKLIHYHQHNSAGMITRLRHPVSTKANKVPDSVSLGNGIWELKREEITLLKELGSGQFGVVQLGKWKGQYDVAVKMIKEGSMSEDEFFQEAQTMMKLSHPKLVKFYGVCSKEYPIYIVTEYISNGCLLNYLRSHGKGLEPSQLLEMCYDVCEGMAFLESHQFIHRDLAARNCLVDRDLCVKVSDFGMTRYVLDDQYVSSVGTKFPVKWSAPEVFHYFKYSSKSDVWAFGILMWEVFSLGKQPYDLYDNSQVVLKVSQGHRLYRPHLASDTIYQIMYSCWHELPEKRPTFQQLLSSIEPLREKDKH
Chain of eIF-2-alpha kinase GCN2 (Homo sapiens), Q9P2K8 [S808G] (Q9P2K8 whole entry S808G): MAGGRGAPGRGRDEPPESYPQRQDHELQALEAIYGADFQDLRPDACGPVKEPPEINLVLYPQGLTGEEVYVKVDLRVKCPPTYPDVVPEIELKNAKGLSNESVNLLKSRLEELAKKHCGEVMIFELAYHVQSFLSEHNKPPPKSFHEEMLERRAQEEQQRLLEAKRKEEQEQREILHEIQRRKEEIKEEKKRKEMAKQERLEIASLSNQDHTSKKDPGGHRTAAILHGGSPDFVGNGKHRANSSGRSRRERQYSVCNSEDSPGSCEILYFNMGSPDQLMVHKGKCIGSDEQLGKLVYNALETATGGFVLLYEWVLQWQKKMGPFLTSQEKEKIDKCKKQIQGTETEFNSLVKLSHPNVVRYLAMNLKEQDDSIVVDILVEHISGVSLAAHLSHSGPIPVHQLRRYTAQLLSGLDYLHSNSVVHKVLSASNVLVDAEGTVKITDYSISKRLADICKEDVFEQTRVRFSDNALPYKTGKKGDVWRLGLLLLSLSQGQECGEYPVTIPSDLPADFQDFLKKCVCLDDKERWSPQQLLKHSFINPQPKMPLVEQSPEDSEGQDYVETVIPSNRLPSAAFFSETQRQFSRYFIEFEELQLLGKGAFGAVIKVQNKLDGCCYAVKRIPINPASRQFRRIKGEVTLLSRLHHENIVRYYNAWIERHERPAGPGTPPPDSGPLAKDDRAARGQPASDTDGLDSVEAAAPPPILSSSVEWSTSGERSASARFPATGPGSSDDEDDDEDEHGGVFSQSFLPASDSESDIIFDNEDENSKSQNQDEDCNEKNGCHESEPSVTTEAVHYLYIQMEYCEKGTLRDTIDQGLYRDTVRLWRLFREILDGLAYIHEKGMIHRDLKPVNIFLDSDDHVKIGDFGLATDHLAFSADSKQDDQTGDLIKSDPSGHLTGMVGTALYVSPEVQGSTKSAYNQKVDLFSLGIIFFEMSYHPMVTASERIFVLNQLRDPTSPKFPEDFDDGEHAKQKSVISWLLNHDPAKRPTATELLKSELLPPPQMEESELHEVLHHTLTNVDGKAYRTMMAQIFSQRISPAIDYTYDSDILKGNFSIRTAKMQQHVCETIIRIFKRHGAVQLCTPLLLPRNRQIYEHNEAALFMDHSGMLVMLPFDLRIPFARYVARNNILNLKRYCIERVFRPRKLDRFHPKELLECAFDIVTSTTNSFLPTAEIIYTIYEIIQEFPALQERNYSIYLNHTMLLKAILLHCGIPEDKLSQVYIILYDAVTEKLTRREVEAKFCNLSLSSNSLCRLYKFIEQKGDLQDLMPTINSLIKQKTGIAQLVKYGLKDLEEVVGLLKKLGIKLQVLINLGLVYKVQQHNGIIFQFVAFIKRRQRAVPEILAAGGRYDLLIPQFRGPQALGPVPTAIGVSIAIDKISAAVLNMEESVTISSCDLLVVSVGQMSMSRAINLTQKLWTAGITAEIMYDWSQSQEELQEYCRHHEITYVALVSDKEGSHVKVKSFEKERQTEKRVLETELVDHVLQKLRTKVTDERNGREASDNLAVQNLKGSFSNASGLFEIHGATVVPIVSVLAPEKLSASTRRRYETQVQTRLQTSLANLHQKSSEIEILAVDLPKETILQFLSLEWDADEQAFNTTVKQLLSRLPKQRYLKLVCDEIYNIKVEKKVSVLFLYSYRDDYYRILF
Chain of Serine/threonine-protein kinase Nek7 (Homo sapiens) (Q8TDX7 whole entry, looked up): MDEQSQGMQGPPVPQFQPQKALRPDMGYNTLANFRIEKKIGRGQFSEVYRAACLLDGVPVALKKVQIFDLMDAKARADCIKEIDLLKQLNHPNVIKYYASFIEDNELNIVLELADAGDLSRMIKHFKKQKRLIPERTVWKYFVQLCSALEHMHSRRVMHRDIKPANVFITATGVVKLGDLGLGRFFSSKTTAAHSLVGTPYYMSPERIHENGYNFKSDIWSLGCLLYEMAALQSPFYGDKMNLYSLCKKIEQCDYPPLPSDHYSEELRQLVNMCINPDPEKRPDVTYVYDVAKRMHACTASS

Cn1nc(C(F)(F)F)cc1-c1cnc(N2CCc3cc(S(=O)(=O)Nc4c(F)cc(Cl)cc4F)cc(N4CCCC4=O)c32)nc1 [TP-020]
inactive: residual activity [1] 84% | residual activity [2] 67% | residual activity [3] 81% | residual activity [4] 100% | residual activity [5] 100% | residual activity [6] 100% | residual activity [7] 100% | residual activity [8] 100% | residual activity [9] 100% | residual activity [10] 94% | residual activity [11] 100% | residual activity [12] 100% | residual activity [13] 87% | residual activity [14] 84% | residual activity [15] 100% | residual activity [16] 99% | residual activity [17] 100% | residual activity [18] 88% | residual activity [19] 78% | residual activity [20] 100% | residual activity [21] 100% | residual activity [22] 88% | residual activity [23] 79% | residual activity [24] 94% | residual activity [25] 90% | residual activity [26] 94% | residual activity [27] 100% | residual activity [28] 98% | residual activity [29] 77% | residual activity [30] 100% | residual activity [31] 100% | residual activity [32] 100% | residual activity [33] 100% | residual activity [35] 100% | residual activity [36] 100% | residual activity [37] 78% | residual activity [38] 90% | residual activity [39] 100% | residual activity [40] 81% | residual activity [41] 97% | residual activity [42] 100% | inhibition [43] 9.13% | inhibition [44] 7.45% | inhibition [45] 28.7%
active: residual activity [34] 34%

Nc1cnc(N2CCc3cc(S(=O)(=O)Nc4c(F)cc(Cl)cc4F)cc(N4CCCC4=O)c32)nc1
inactive: residual activity [1] 94% | residual activity [2] 75% | residual activity [3] 100% | residual activity [4] 100% | residual activity [5] 100% | residual activity [6] 85% | residual activity [7] 100% | residual activity [8] 95% | residual activity [9] 97% | residual activity [10] 91% | residual activity [11] 63% | residual activity [12] 100% | residual activity [13] 91% | residual activity [14] 80% | residual activity [15] 100% | residual activity [16] 100% | residual activity [17] 74% | residual activity [18] 79% | residual activity [19] 100% | residual activity [20] 96% | residual activity [21] 100% | residual activity [22] 89% | residual activity [23] 100% | residual activity [24] 100% | residual activity [25] 84% | residual activity [26] 83% | residual activity [27] 99% | residual activity [28] 100% | residual activity [29] 100% | residual activity [30] 100% | residual activity [31] 100% | residual activity [32] 100% | residual activity [33] 88% | residual activity [34] 100% | residual activity [35] 98% | residual activity [36] 100% | residual activity [37] 100% | residual activity [38] 100% | residual activity [39] 100% | residual activity [40] 100% | residual activity [41] 100% | residual activity [42] 88% | inhibition [43] -3.82% | inhibition [44] 0.32% | inhibition [45] -1.24%
